The results in this text go back to patent US20100056522A1, “INTRAOCULAR PRESSURE-LOWERING AGENT COMPRISING COMPOUND HAVING HISTONE DEACETYLASE INHIBITOR EFFECT AS ACTIVE INGREDIENT” (Santen Pharmaceutical Co., Ltd., priority 2007, published 2010).

Test [1] relates to TM-1 cells (human trabecular meshwork cell line). Put plainly: Test for evaluation of effect of morphological change on trabecular meshwork cells (cell shape index). Format: cell-based. Particulars: 10 μM, 24 hours, control CSI 0.679, lower CSI indicates greater morphological change. Here is the method: As a method for evaluating a cellular morphological change, an evaluation system using the cell shape index (hereinafter referred to as “CSI”) as an index has been reported in The Journal of Clinical Investigation, 103, 1141-1150 (1999). Therefore, according to the method described in the above document, an effect of morphological change by the present compounds on trabecular meshwork cells was evaluated.
A human trabecular meshwork cell line (hereinafter referred to as “TM-1 cells”) reported in Investigative Opthalmology & Visual Science, 43, 151-161 (2002) was used.
Culture medium 1: A reagent was prepared by adding fetal bovine serum (10%), L-glutamine (2 mM), amphotericin B (2.5 μg/mL), and gentamicin (25 μg/mL) to Dulbecco's Modified Eagle Medium (hereinafter referred to as “D-MEM”).
Culture medium 2: Fetal bovine serum (3%), L-glutamine (2 mM), amphotericin B (2.5 μg/mL), and gentamicin (25 μg/mL) were added to D-MEM.
Cell staining liquid: A mixed liquid of Calcein-AM (16 μM) and Hoechst 33342 (40 μM) was prepared by diluting a Calcein-AM solution (cytoplasmic staining reagent, manufactured by Dojindo Laboratories) and a Hoechst 33342 solution (nuclear staining reagent, manufactured by Dojindo Laboratories) with D-MEM containing L-glutamine (2 mM), amphotericin B (2.5 μg/mL), and gentamicin (25 μg/mL).
TM-1 cells subcultured at 37° C. in a 8% carbon dioxide gas atmosphere were treated with a trypsin/EDTA solution (0.05% trypsin and 0.53 mM tetrasodium ethylenediaminetetraacetate) at 24 hours before performing a drug treatment mentioned below and seeded on a 96-well culture plate. The culture medium 1 was used for the subculture of the cells. The culture medium 2 was used for the cell culture after seeding the cells on the plate.
A test compound was dissolved in dimethyl sulfoxide, whereby a 5 mM solution was prepared. Then, the resulting solution was diluted with the culture medium 2, whereby a 200 μM test compound solution was prepared.
It has been reported that Y-27632 which is a Rho kinase inhibitor induces a morphological change in trabecular meshwork cells in Investigative Opthalmology & Visual Science, 42, 137-144 (2001). Therefore, Y-27632 (produced according to the method described in WO 90/05723) was used as a positive control, and dissolved in dimethyl sulfoxide in the same manner as the test compound, whereby a 5 mM solution was prepared, and then, the resulting solution was diluted with the culture medium 2, whereby a 200 μM positive control compound solution was prepared.
1) To a 96-well culture plate, a solution of TM-1 cells adjusted to a cell density of […] was added in an amount of 95 μL (1.5×10^4 cells) per well.
2) Incubation was performed at 37° C. in a 8% carbon dioxide gas atmosphere for 24 hours.
3) The test compound solution or positive control compound solution was added in an amount of 5 μL per well (the final concentration of the test compound or positive control compound was 10 μM). As a control, the culture medium 2 containing dimethyl sulfoxide (4%) was added in an amount of 5 μL per well.
4) Incubation was performed at 37° C. in a 8% carbon dioxide gas atmosphere for 24 hours.
5) The cell staining liquid was added in an amount of 10 μL per well.
6) Incubation was performed at 37° C. in a 8% carbon dioxide gas atmosphere for 1 hour to stain the cells.
7) A 37% formaldehyde solution was added in an amount of 10 μL per well.
8) Incubation was performed at room temperature for 1 hour to fix the cells.
9) Washing with phosphate-buffered saline was performed.
10) Using Array Scan Vti HCS reader (manufactured by Cellomics), images of stained cells magnified with a 20-fold objective lens were captured in 80 fields (10 fields×8 wells) per test compound addition group.
11) CSI was calculated for each cell and an average value was obtained for each test compound addition group.
CSI was calculated using the following equation.
CSI=4π×(Cell Area)/(Cell Perimeter)^2

Test [2] has as its system HDAC (HeLa nuclear extract). Put plainly: Test for evaluation of an HDAC inhibitory effect (HDAC Fluorimetric Assay/Drug Discovery Kit, Biomol). The test is classed as biochemical. The following applies: final concentration of test compound 30 μM, rates of more than 100% are shown as 100%. How it is done: Using HDAC Fluorimetric Assay/Drug Discovery Kit (manufactured by Biomol), an HDAC inhibitory effect of the present compounds was measured according to the protocol included with the kit. The kit contains Buffer, HeLa nuclear extract (includes an HDAC), Substrate, Developer and Trichostatin A (an HDAC inhibitor).
A test compound was dissolved in dimethyl sulfoxide, whereby a 2 mg/mL solution was prepared. Then, the resulting solution was diluted with Buffer containing 5% dimethyl sulfoxide, whereby a 150 μM test compound solution was prepared.
1) To a 384-well culture plate, the test compound solution was added in an amount of 2 μL per well.
2) HeLa nuclear extract was diluted 30-fold with Buffer. The resulting solution was added in an amount of 3 μL per well and then, incubation was performed at 37° C. for 2 hours.
3) Substrate was diluted 500-fold with Buffer. The resulting solution was added in an amount of 5 μL per well (the final concentration of the test compound was 30 μM) and then, incubation was performed at 37° C. for 10 minutes.
4) Developer was diluted 20-fold with Buffer and Trichostatin A (2 μM) was added to it. The resulting solution was added in an amount of 10 μL per well and then, incubation was performed at room temperature for 15 minutes.
5) The fluorescence intensity of each well was measured using multilabel counter ARVO (manufactured by Wallac) with excitation at 360 nm and emission at 460 nm.
6) A control data was obtained from the same experiment except that Buffer containing 5% DMSO was added instead of the test compound solution as the above-mentioned procedure from 1) to 5).
7) A blank data was obtained from the same experiment except that Buffer containing 5% DMSO was added instead of the test compound solution and that Buffer was added instead of Hela nuclear extract as the above-mentioned procedure from 1) to 5).
Enzyme inhibitory rate (%) was calculated using the following equation.
(Enzyme Inhibitory Rate(%))=100×[1−{(Fluorescence Intensity of Test Compound Solution)−(Florescence Intensity of Blank)}/{(Florescence Intensity of Control)−(Florescence Intensity of Blank)}]

Each structure is given as a SMILES string.

For `O=C(/C=C/c1cccc(C(=O)NO)c1)NO` [CBHA, N-Hydroxy-3-[3-hydroxyamino-3-oxo-1-propenyl]benzamide, reference compound], in test [1], the CSI worked out at 0.545. Moreover, in test [2], the “Enzyme Inhibitory Rate (%)” value was found to be 99%. The like results for `CN(C)CCCN(Cc1ccc(C(=O)Nc2ccccc2N)nc1)C(=O)Nc1ccc2c(c1)OCCO2` [Compound 1-2, N-(2-Aminophenyl)-5-[3-(2,3-dihydrobenzo[1,4]dioxin-6-yl)-1-(3-dimethylaminopropyl)ureidomethyl]pyridine-2-carboxylic acid amide] were, in that order, 0.516 and 100%.

In turn, `Nc1ccccc1NC(=O)c1ccc(CN(CCCN2CCOCC2)C(=O)NCCc2ccccc2)cn1` [Compound 1-3, N-(2-Aminophenyl)-5-[1-[3-(morpholin-4-yl)propyl]-3-phenethylureidomethyl]pyridine-2-carboxylic acid amide] came in with a CSI in test [1] of 0.569. Besides, in test [2], the “Enzyme Inhibitory Rate (%)” value is reported as 100%. `CN(C)CCCN(Cc1ccc(C(=O)Nc2ccccc2N)nc1)C(=O)Nc1ccc(F)c(F)c1` [Compound 1-4, N-(2-Aminophenyl)-5-[3-(3,4-difluorophenyl)-1-(3-dimethylaminopropyl)ureidomethyl]pyridine-2-carboxylic acid amide]: the CSI in test [1] is given as 0.556. Moreover, the “Enzyme Inhibitory Rate (%)” value in test [2] is reported as 100%.

In test [1], `COc1ccc(NC(=O)N(CCCN(C)C)Cc2ccc(C(=O)Nc3ccccc3N)nc2)cc1` [Compound 1-6, N-(2-Aminophenyl)-5-[1-(3-dimethylaminopropyl)-3-(4-methoxyphenyl)ureidomethyl]pyridine-2-carboxylic acid amide] came in with a CSI of 0.549. The “Enzyme Inhibitory Rate (%)” value in test [2] is 100%. Regarding `Nc1ccccc1NC(=O)c1ccc(CN(CCCN2CCOCC2)C(=O)Nc2cccnc2)cn1` [Compound 1-8, N-(2-Aminophenyl)-5-[1-[3-(morpholin-4-yl)propyl]-3-(pyridin-3-yl)ureidomethyl]pyridine-2-carboxylic acid amide], the CSI in test [1] came to 0.538. Also, the “Enzyme Inhibitory Rate (%)” value in test [2] worked out at 96%.

`CN(C)CCCN(Cc1ccc(C(=O)Nc2ccccc2N)nc1)C(=O)Nc1cccc(F)c1` [Compound 1-10, N-(2-Aminophenyl)-5-[1-(3-dimethylaminopropyl)-3-(3-fluorophenyl)ureidomethyl]pyridine-2-carboxylic acid amide] had a CSI in test [1] of 0.528. The “Enzyme Inhibitory Rate (%)” value in test [2] is given as 98%.

Take `Cc1ccc(NC(=O)N(CCCN(C)C)Cc2ccc(C(=O)Nc3ccccc3N)nc2)cc1F` [Compound 1-13, N-(2-Aminophenyl)-5-[1-(3-dimethylaminopropyl)-3-(3-fluoro-4-methylphenyl)ureidomethyl]pyridine-2-carboxylic acid amide]: the CSI in test [1] was determined as 0.545. Besides, in test [2], the “Enzyme Inhibitory Rate (%)” value is recorded as 100%. For `Cc1cc(NC(=O)N(CCCN(C)C)Cc2ccc(C(=O)Nc3ccccc3N)nc2)ccc1F` [Compound 1-14, N-(2-Aminophenyl)-5-[1-(3-dimethylaminopropyl)-3-(4-fluoro-3-methylphenyl)ureidomethyl]pyridine-2-carboxylic acid amide], in that order: 0.520 and 100%.

In test [1], `CN(C)CCCN(Cc1ccc(C(=O)Nc2ccccc2N)nc1)C(=O)Nc1ccc(C#N)cc1` [Compound 1-20, N-(2-Aminophenyl)-5-[3-(4-cyanophenyl)-1-(3-dimethylaminopropyl)ureidomethyl]pyridine-2-carboxylic acid amide] displayed a CSI of 0.516. Besides, the “Enzyme Inhibitory Rate (%)” value in test [2] was 99%. For `CN(C)CCCN(Cc1ccc(C(=O)Nc2ccccc2N)nc1)C(=O)Nc1ccc(OC(F)(F)F)cc1` [Compound 1-21, N-(2-Aminophenyl)-5-[1-(3-dimethylaminopropyl)-3-(4-trifluoromethoxyphenyl)ureidomethyl]pyridine-2-carboxylic acid amide], in that order: 0.575 and 98%. For `N#Cc1ccc(NC(=O)N(CCCO)Cc2ccc(C(=O)Nc3ccccc3N)nc2)cc1` [Compound 1-24, N-(2-Aminophenyl)-5-[3-(4-cyanophenyl)-1-(3-hydroxypropyl)ureidomethyl]pyridine-2-carboxylic acid amide], in that order: 0.597 and 96%. For `Nc1ccccc1NC(=O)c1ccc(CN(CCCO)C(=O)Nc2ccc3c(c2)OCO3)cn1` [Compound 1-25, N-(2-Aminophenyl)-5-[3-(benzo[1,3]dioxol-5-yl)-1-(3-hydroxypropyl)ureidomethyl]pyridine-2-carboxylic acid amide], in that order: 0.571 and 97%.

Consider `CCOC(=O)CCN(Cc1ccc(C(=O)Nc2ccccc2N)nc1)C(=O)Nc1ccc(N(C)C)cc1` [Compound 1-27, N-(2-Aminophenyl)-5-[3-(4-dimethylaminophenyl)-1-(2-ethoxycarbonylethyl)ureidomethyl]pyridine-2-carboxylic acid amide], for which, in test [1], the CSI stood at 0.624. For the same molecule, in test [2], the “Enzyme Inhibitory Rate (%)” value came out at 97%.

`CN(C)CCCN(Cc1ccc(C(=O)Nc2ccccc2N)nc1)C(=O)Nc1nc2ccccc2s1` [Compound 1-30, N-(2-Aminophenyl)-5-[3-(1,3-benzothiazol-2-yl)-1-(3-dimethylaminopropyl)ureidomethyl]pyridine-2-carboxylic acid amide] registered a CSI in test [1] of 0.564. The “Enzyme Inhibitory Rate (%)” value in test [2] worked out at 100%.

On to `CN(C)CCCN(Cc1ccc(C(=O)Nc2ccccc2N)nc1)C(=O)Nc1nc2ccccc2[nH]1` [Compound 1-31, N-(2-Aminophenyl)-5-[3-(1H-benzimidazol-2-yl)-1-(3-dimethylaminopropyl)ureidomethyl]pyridine-2-carboxylic acid amide], for which the CSI in test [1] was 0.551. Also, the “Enzyme Inhibitory Rate (%)” value in test [2] was determined as 99%. As to `C[C@@H](N)[C@H]1CC[C@H](C(=O)Nc2ccncc2)CC1` [Compound Y-27632, reference compound], the CSI in test [1] amounted to 0.543.
